{"source": "patent US20230257484A1", "about": "“DENDROBIUM OFFICINALE OLIGOSACCHARIDE, DENDROBIUM OFFICINALE OLIGOSACCHARIDE DERIVATIVE AND PREPARATION METHOD AND USE THEREOF” (KUNMING INSTITUTE OF BOTANY, CHINESE ACADEMY OF SCIENCES, priority 2021, published 2023)", "key": {"[1]": {"system": "collagenase", "assay": "Collagenase inhibition rate", "type": "biochemical", "method": "Experiment on Collagenase Inhibition Rate\nProtease buffer solution, protease, protease substrate, inhibitor (1,10-Phenanthroline). All reagents were stored at −20° C.\na. Background blank well: 100 μL/well of protease buffer solution.\nb. Sample well: 100 μL, prepared into different concentrations.\nc. Positive control well: 10 μL of protease+90 μL of protease buffer solution.\n(3) After adding reagents according to the above groups, 100 μL of collagenase reaction mixture was added to each well, incubated in the dark, and then the OD value at 345 nm was measured.\nThe incubation time depended on the activity of the sample to be tested, and the low activity sample could be incubated for 1-3 h.\nCollagenase inhibition rate (%)=(ODbackground well−ODsample well)/(ODbackground well−ODpositive control well)."}, "[2]": {"assay": "DPPH free radical scavenging", "type": "biochemical", "method": "Experiment on the DPPH Free Radical Scavenging\nDPPH, water-soluble vitamin E (Trolox) (Trolox dissolved in absolute ethanol, with a concentration of 10 mM, stored at −20° C.), pure water.\nThe drug to be tested was mixed with DPPH (a final concentration of 100 µM) and reacted at 30° C. for 1 h. 3 repeating wells were set, and a blank control well without drug and a Trolox positive control well were set at the same time. The OD value was measured by a microplate reader with a detection wavelength of 515 nm, and the anti-oxidation rate was calculated.\nAnti-oxidation rate (%)=(1−experimental well OD515nm/blank well OD515nm)×100%."}, "[3]": {"molecular_target": "porcine pancreatic elastase (Sus scrofa, UniProt P00772)", "sequence (P00772 27-266)": "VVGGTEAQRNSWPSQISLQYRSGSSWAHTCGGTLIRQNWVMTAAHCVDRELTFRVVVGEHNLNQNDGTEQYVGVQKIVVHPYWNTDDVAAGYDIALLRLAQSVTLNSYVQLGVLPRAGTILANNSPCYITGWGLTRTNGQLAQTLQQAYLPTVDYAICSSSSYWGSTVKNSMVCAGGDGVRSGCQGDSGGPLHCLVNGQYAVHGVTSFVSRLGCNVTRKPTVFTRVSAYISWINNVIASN", "assay": "Elastase inhibition rate", "type": "biochemical", "method": "Experiment on the Elastase Inhibition Rate\nSample, positive control of catechin, Tris, HCl, porcine pancreatic elastase, N-succinyl-alanine-alanine-alanine-p-nitroaniline, DMSO.\nPreparation of a sample solution: 1 mg/mL sample solution was prepared (pure water or a buffer solution was used for preparation, and if insoluble in water or the buffer solution, the sample was firstly dissolved with DMSO, and then water or the buffer solution was added. In principle, the content of DMSO should not exceed 5%).\nPreparation of a positive control: 1 mg/mL catechin;\nPreparation of a buffer solution: 0.1 M of Tris-HCl buffer solution, PH=8.0;\nPreparation of a reaction substrate solution: N-succinyl-alanine-alanine-alanine-p-nitroaniline (AAAPVN) solution (2 mM);\nPreparation: 28.5 μL of porcine pancreatic elastase solution (0.171 U/mL) was taken and dissolved in 10 mL of Tris-HCl buffer solution.\n(2) The solution of 50 μL of sample, 50 μL of porcine pancreatic elastase and 100 μL of reaction substrate was added to a 96-well plate.\n(3) After keeping at room temperature for 5 min, an absorbance at 420 nm was measured.\nElastase inhibition rate (%)=(1−sample OD420 nm/experimental well OD420 nm)×100%."}, "[4]": {"system": "secretion of hyaluronic acid, Hacat cells", "assay": "Promoting secretion of hyaluronic acid in Hacat cells (ELISA)", "type": "cell-based, human", "conditions": "for Secretion of hyaluronic acid: Hacat cells, 24 h", "method": "Experiment on Promoting Secretion of Hyaluronic Acid\nHuman immortalized […] (Hacat cells), human hyaluronic acid Elisa kit, distilled water.\nA 96-well plate was inoculated with […] of cell suspension per well, and a concentration of the suspension was 4×10^5 cells/mL. After 24 h of incubation, the original culture medium was discarded, then the cells were washed with PBS for 1-2 times and the serum-free medium containing different concentrations of the drug to be tested was added thereto, and continued to incubate for 24 h. A blank control without drugs and a TGF-β positive control were set. Then the cells were lysed with ripa lysis buffer solution containing 1% PMSF, the supernatant after centrifugation was taken, and the secretion of hyaluronic acid was detected according to the method provided in the […]. The OD value was measured by a microplate reader with a detection wavelength of 450 nm. The OD value was substituted into the regression equation of the standard curve to calculate the increase rate of the secretion of hyaluronic acid."}, "[5]": {"system": "TNF-α secretion, RAW264.7 cells", "assay": "Immunomodulatory activity: TNF-α secretion by RAW264.7 cells (ELISA)", "type": "cell-based", "conditions": "for TNF-α: RAW264.7, 24 h", "method": "(§1) Evaluation of the Immunomodulatory Activity of Dendrobium officinale Oligosaccharides RAW264.7 cells, TNF-α kit, IL-6 kit, distilled water. The logarithmic-growth RAW264.7 cells were taken and inoculated into 12-well plates after cell counting. The plate was placed in an incubator overnight, and then the cell supernatant was discarded. Different concentrations of Dendrobium officinale oligosaccharides, lipopolysaccharides and basal medium 1640 were added under aseptic operation, and the supernatant after 24 h of intervention was collected and stored at −20° C. for later use. The changes in TNF-α and IL-6 secretion were detected according to the instructions of the ELISA kit. The OD value was measured by a microplate reader with a detection wavelength of 450 nm. The OD value was substituted into the regression equation of the standard curve to calculate the increase rate of TNF-α and IL-6 secretion."}, "[6]": {"system": "IL-6 secretion, RAW264.7 cells", "assay": "Immunomodulatory activity: IL-6 secretion by RAW264.7 cells (ELISA)", "type": "cell-based", "conditions": "for IL-6 pg/mL: RAW264.7, 24 h", "method": "as §1"}, "[7]": {"system": "Hacat cells", "assay": "Survival of Hacat cells", "type": "cell-based, human"}, "[8]": {"system": "RAW264.7 cells", "assay": "Survival of RAW264.7 cells", "type": "cell-based"}, "[9]": {"conditions": "final reaction concentration 1%"}, "[10]": {"conditions": "final reaction concentration 4%"}, "[11]": {"conditions": "final reaction concentration 8%"}, "[12]": {"conditions": "final reaction concentration 11%"}, "[13]": {"conditions": "final reaction concentration 15%"}, "[14]": {"conditions": "final reaction concentration 20%"}}}
{"smiles": "c1cnc2c(c1)ccc1cccnc12", "note": "[Positive inhibitor, 1,10-Phenanthroline, reference compound]", "values": [{"measurement": "Collagenase inhibition rate (%)", "setting": "[1]; [9]", "value": 102.23, "unit": "%"}]}
{"smiles": "O=C(O)C1O[C@@H](O)C(O)C(O)[C@@H]1O[C@@H]1OC(CO)[C@@H](O[C@@H]2OC(CO)[C@@H](O[C@@H]3OC(CO)[C@@H](O[C@@H]4OC(CO)[C@H](O[C@@H]5OC(CO)[C@H](O)C(O)C5O)C(O)C4O)C(O)C3O)C(O)C2O)C(O)C1O", "note": "(stereo partly shown) [Dendrobium officinale oligosaccharide]", "values": [{"measurement": "anti-oxidation rate", "setting": "[2]; concentration of 15%-20%", "value": "> 20", "unit": "%"}, {"measurement": "Anti-oxidation rate (%)", "setting": "[2]; [10]", "value": 11.335, "unit": "%"}, {"measurement": "Anti-oxidation rate (%)", "setting": "[2]; [11]", "value": 14.346, "unit": "%"}, {"measurement": "Anti-oxidation rate (%)", "setting": "[2]; [12]", "value": 16.213, "unit": "%"}, {"measurement": "Anti-oxidation rate (%)", "setting": "[2]; [13]", "value": 21.155, "unit": "%"}, {"measurement": "Anti-oxidation rate (%)", "setting": "[2]; [14]", "value": 25.217, "unit": "%"}, {"measurement": "elastase inhibition activity", "setting": "[3]; concentration of 20%", "value": "> 10", "unit": "%"}, {"measurement": "Elastase inhibition rate %", "setting": "[3]; [10]", "value": "−2.135", "unit": "%"}, {"measurement": "Elastase inhibition rate %", "setting": "[3]; [11]", "value": 3.886, "unit": "%"}, {"measurement": "Elastase inhibition rate %", "setting": "[3]; [12]", "value": 8.417, "unit": "%"}, {"measurement": "Elastase inhibition rate %", "setting": "[3]; [13]", "value": 9.723, "unit": "%"}, {"measurement": "Elastase inhibition rate %", "setting": "[3]; [14]", "value": 15.827, "unit": "%"}, {"measurement": "collagenase inhibition activity", "setting": "[1]; concentration of 0.4%-4%", "value": "> 50", "unit": "%"}, {"measurement": "Collagenase inhibition rate (%)", "setting": "[1]; final reaction concentration 0.4%", "value": 50.32, "unit": "%"}, {"measurement": "Collagenase inhibition rate (%)", "setting": "[1]; final reaction concentration 0.8%", "value": 63.63, "unit": "%"}, {"measurement": "Collagenase inhibition rate (%)", "setting": "[1]; [9]", "value": 72.20, "unit": "%"}, {"measurement": "Collagenase inhibition rate (%)", "setting": "[1]; final reaction concentration 2%", "value": 84.80, "unit": "%"}, {"measurement": "Collagenase inhibition rate (%)", "setting": "[1]; [10]", "value": 110.54, "unit": "%"}, {"measurement": "activity to promote the secretion of hyaluronic acid", "setting": "[4]; concentration of 8%-20%", "value": "> 0.3", "unit": "ng/mL"}, {"measurement": "Secretion of hyaluronic acid", "setting": "[4]; [10]", "value": 0.2294, "unit": "ng/mL"}, {"measurement": "Secretion of hyaluronic acid", "setting": "[4]; [11]", "value": 0.5530, "unit": "ng/mL"}, {"measurement": "Secretion of hyaluronic acid", "setting": "[4]; [12]", "value": 0.3691, "unit": "ng/mL"}, {"measurement": "Secretion of hyaluronic acid", "setting": "[4]; [13]", "value": 0.4930, "unit": "ng/mL"}, {"measurement": "Secretion of hyaluronic acid", "setting": "[4]; [14]", "value": 0.5392, "unit": "ng/mL"}, {"measurement": "secretion of TNF-α by RAW264.7 macrophages (in words)", "setting": "[5]; concentration of 3.125 μg/mL, equivalent to the positive control LPS", "value": "significantly increased"}, {"measurement": "TNF-α", "setting": "[5]; final reaction concentration 3.125 μg/mL", "value": 1062.29, "unit": "pg/mL"}, {"measurement": "TNF-α", "setting": "[5]; final reaction concentration 6.25 μg/mL", "value": 35.66, "unit": "pg/mL"}, {"measurement": "TNF-α", "setting": "[5]; final reaction concentration 12.5 μg/mL", "value": 53.86, "unit": "pg/mL"}, {"measurement": "secretion of IL-6 by RAW264.7 macrophages (in words)", "setting": "[6]; concentration of 50 μg/mL, equivalent to the positive control LPS", "value": "significantly increased"}, {"measurement": "IL-6 pg/mL", "setting": "[6]; final reaction concentration 50 μg/mL", "value": 1593.01, "unit": "pg/mL"}, {"measurement": "IL-6 pg/mL", "setting": "[6]; final reaction concentration 100 μg/mL", "value": 1376.42, "unit": "pg/mL"}, {"measurement": "IL-6 pg/mL", "setting": "[6]; final reaction concentration 200 μg/mL", "value": 1117.33, "unit": "pg/mL"}, {"measurement": "survival rate and survival time of cells", "setting": "[7]", "value": "increase the survival rate and survival time"}, {"measurement": "survival rate and survival time of cells", "setting": "[8]", "value": "increase the survival rate and survival time"}]}
{"smiles": "Cc1c(C)c2c(c(C)c1O)CCC(C)(C(=O)O)O2", "note": "(stereo not shown) [Trolox, reference compound]", "values": [{"measurement": "Anti-oxidation rate (%)", "setting": "[2]; final reaction concentration 25 (unit not given), DPPH, 30° C., 1 h", "value": 95.668, "unit": "%"}]}
{"smiles": "O=C(O[C@@H]1Cc2c(O)cc(O)cc2O[C@@H]1c1ccc(O)c(O)c1)c1cc(O)c(O)c(O)c1", "note": "[epicatechin gallate, reference compound]", "values": [{"measurement": "inhibition at 100 µg/mL", "setting": "[3]; final reaction concentration 100 μg/ml", "value": 68.5, "unit": "%"}]}
